Compound | melting point [°C]
Cn1ccc(-c2cccc(C=O)n2)n1 | 98 to 100
CCCn1c(=O)cc(Cl)n(Cc2ccc(-c3ccccc3C#N)cc2)c1=O | 146 to 147
Nc1c(Cl)cnnc1Cl | 176 to 178
COc1ccc(CNc2c(NC(C)(C)C)c(=O)c2=O)c(OC)c1 | 225 to 226
CCCn1c(COCC)nc2c(N)nc3cc(OCc4ccccc4)ccc3c21 | 188 to 189
Cc1cccc(-c2ccnc3c(C#N)cnn23)c1 | 161 to 162
N#CCNC(=O)c1cccc2ccccc12 | 160 to 163
CC1=C(C(=O)OC(C)C)C(c2cccc(Cl)c2Cl)N(C(=O)OC(C)C)C(=S)N1 (configuration not stated) | 179 to 181
COc1cc(C(=O)O)ccc1C(F)(F)F | 203 to 204
Nc1c(Cl)cc(-c2ccccc2)cc1Cl | 112 to 113
CN(C(=O)OCc1ccccc1)C1CCN(CC2(C)Cn3cc([N+](=O)[O-])nc3O2)CC1 (configuration not stated) | 139
O=C(OCCl)n1c(-c2cscn2)nc2ccccc21 | 143 to 144
COC(=O)c1cc(F)ccc1Nc1ccnc2c(Cl)cccc12 | 196
Cc1ccc(O)cc1C=O | 116 to 118
CCCCc1ccc(CN(CCCCCCC(=O)O)S(C)(=O)=O)cc1 | 137
O=S(=S)(OC1O[C@H](COCc2ccccc2)[C@@H](OCc2ccccc2)[C@H](OCc2ccccc2)[C@H]1OCc1ccccc1)c1ccccc1 (some centres not stated) | 106 to 108
O=C(O)COc1c(I)cc(C(=O)c2c(Cc3ccccc3)oc3ccccc23)cc1I | 144 to 146
O=[N+]([O-])c1cccc(C(Cl)=NN=C(Cl)c2ccc(C(F)(F)F)cc2)c1 | 78 to 80
CS(=O)(=O)c1ccc(-c2cnn(Cc3ccc(Cl)s3)c(=O)c2-c2ccc(F)cc2)cc1 | 139 to 141
FC(F)(F)c1cccc(N2CCN(Cc3cn4cc(Cl)ccc4n3)CC2)c1 | 145 to 146
Nc1nc2c(ncn2COCCOC=O)c(=O)[nH]1 | 225 to 227
O=C(O)[C@H](Cc1ccccc1)C[C@@H](Cc1ccccc1)C(=O)N[C@@H](COCc1ccccc1)C(=O)O | 149 to 151
COc1ccc(C2(O)OC(=O)C(c3ccc4nsnc4c3)=C2Cc2ccccc2)cc1 (configuration not stated) | 40 to 41
CCCCCCCCCCCCCCCCCCS(=O)(=O)c1ccc(C)cc1 | 79 to 80
O=C1C=C(C2CCC(c3ccc(Cl)cc3)CC2)C(=O)c2ccccc21 (configuration not stated) | 147 to 149
CCOC(=O)c1c(C)csc1N/C=C(\C#N)C(=O)OC(C)(C)C | 144

Compound | melting point [°C]
CCOC(=O)c1c(CN2CCOCC2)nc2cc3c(cc2c1-c1ccc(OC)c(OC)c1)OCCO3 | 174 to 175
CC(=NO)C(C)(C)NCC(CNC(C)(C)C(C)=NO)CC(O)CC1([N+](=O)[O-])N=CC=N1 (configuration not stated) | 185 to 187
CN=C(NC#N)NCCSCc1ccc(CNC)o1 | 81 to 85
CCOC(=O)c1cn(-c2ccc(F)cc2C)c2c(C)c([N+](=O)[O-])c(F)cc2c1=O | 207 to 209
O=C(O)CCc1cc2nc(Cl)ccc2n1S(=O)(=O)c1ccc2ncsc2c1 | 248
CC(=O)Nc1cc(C)c(N)c(C)c1 | 148
O=C1C(=O)c2ccccc2C2=C1SCC1(CCC(O)CC1)O2 (configuration not stated) | 166 to 168
COc1c(Nc2ncc(Cl)c(N[C@@H]3CCCC[C@H]3NS(C)(=O)=O)n2)ccc2c1CCCC(NCCO)C2 (some centres not stated) | 92 to 94
Cc1cc(Cl)cnc1N | 63 to 64
Fc1ccc(Oc2ccc(-c3c[nH]cn3)cc2)cc1 | 165 to 168
COc1cccc(OC)c1-c1ccc(CC[C@H](NC(=O)c2c(Cl)cccc2Cl)C(=O)O)cc1 | 105 to 107
CCc1cccc(CC(=O)O)c1OCCCc1cn(-c2ccc(Cl)cn2)nc1C(C)C | 142 to 143
CCCCNC(=O)C1Cc2c([nH]c3ccccc23)C(c2ccc3c(c2)OCO3)N1C(=O)C=Cc1ccccc1 (configuration not stated) | 114 to 117
CNc1cc(Cl)cc(NC)c1[N+](=O)[O-] | 193
COC(=O)C1=C(Cl)C(=O)CC(c2ccc(Cl)c(OC)c2F)N1 (configuration not stated) | 127 to 129
CC(C)(C)OC(=O)N1CCN(Cc2nc(-c3cc(C(C)(C)C)c(O)c(C(C)(C)C)c3)cs2)CC1 | 108 to 109
COc1cc2cc3[nH]cc(C#N)c(=O)c3cc2cc1OC | > 265
N#Cc1ccc(C(=O)C23CCCN2C(=O)N(c2cc(Cl)cc(Cl)c2)C3=O)cc1 (configuration not stated) | 72.1
CC(=O)OC(C)c1ccc2occ(C#N)c(=O)c2c1 (configuration not stated) | 148 to 149
COc1ccc(C(=O)Nc2ccccc2)c2c1OCC2CC(=O)OCc1ccccc1 (configuration not stated) | 179 to 180
CCCc1nc2ccnn2c(O)c1Cc1ccc(-c2ccccc2C#N)cc1 | 251
C[C@H]1OC(=O)N[C@@H]1C(=O)NCCO[N+](=O)[O-] | 81.5 to 82.5
CC(C)c1c(O)ccc2c1oc1ccc(C#N)cc12 | 180 to 182
CCCc1nsc(NC(=O)NC)c1C(=O)OCC | 173 to 174
CCCc1nc2c(N)nc3cc(Cl)ccc3c2s1 | 159 to 160
COc1ncccc1-c1cccc(OC2SCC(OC(C)=O)C(OC(C)=O)C2OC(C)=O)c1 (configuration not stated) | 179

Compound | melting point [°C]
Cn1ncnc1COc1nc2c(nnn2-c2ccccc2)c2ccccc12 | 188 to 190
CC1Cc2cc3c(cc2C(c2ccc([N+](=O)[O-])cc2)=NN1c1nccs1)OCO3 (configuration not stated) | 145 to 150
COc1cc(N)c(Cl)cc1C(=O)NC1CCN(CCC(O)C(=O)c2ccc(F)cc2)CC1OC (configuration not stated) | 146
C[C@@H]1OC(=O)N(C(=O)O)[C@H]1c1ccc(F)c(F)c1 (relative stereo) | 80 to 83
OC(CC(Br)=CBr)(CC(Br)=CBr)Cn1cncn1 (configuration not stated) | 100
O=Cc1cccc2ncc(C3CCCCC3)cc12 | 94 to 95
COc1ccc(C2Nc3ccccc3C(=O)N2c2ccc(F)c(C(F)(F)F)c2)cn1 (configuration not stated) | 167 to 168
COC(=O)c1cc(CO)ccc1OCc1nc(-c2ccco2)oc1C | 131 to 132
C=CCc1c(C(F)(F)F)[nH]n(-c2ccc(Br)c(Cl)c2)c1=O | 117
CC(C)(C)NS(=O)(=O)Cl | 28 to 30
CC(=O)Nc1cccc2ccc(O)cc12 | 161 to 162
CC(=O)NC(C=CCP(=O)(O)O)C(=O)O (configuration not stated) | 155
O=C(O)c1cc(NC(=O)C(F)(F)F)c(C(=O)c2ccccc2)c(OCc2ccccc2)c1 | 213
Nc1ccc2c(c1)COc1cc(Nc3ccc(C(F)(F)F)cc3N)ccc1C2=O | 93.9
COc1ccc(C(=O)Nc2ccccc2)cc1NS(=O)(=O)c1ccc(C(F)(F)F)cc1 | 197 to 198
CCOC(=O)c1cnc(Nc2cc(OC)c(OC)c(OC)c2)nc1-c1ccccc1 | 64 to 65
Cc1c(=O)n(Cc2ccc(C(=O)OC(C)(C)C)cc2)c(=O)n2ccsc12 | 163 to 165
CCOC(=O)C=Cc1cccc(Nc2ccc3nc[nH]c3c2)c1 | 188 to 190
O=C(O)C1CSC(c2ccncc2)N1 (configuration not stated) | 171 to 173
CC(C)(O)c1cnn2c(-c3ccc(F)c(-c4ccc(F)cn4)c3)cnc2n1 | 222
N#Cc1nc(N)nc(N)c1-c1ccc(Cl)cc1Cl | 249
CCCS(=O)(=O)NCC1CC2C=CC1C2 (configuration not stated) | 51 to 52
COc1cc(C=O)c(OC)c2c1C(C)(C)CCC2(C)C | 55 to 57
CC(C)OC(=O)Nc1cccc(-c2ccnc3c(C(=O)C4CCCC4)cnn23)c1 | 57 to 59
CCc1ccc2ccc(N)nc2n1 | 170 to 172
O=C(Nc1ccc2ccc(Cl)nc2n1)c1ccccc1Cl | 180

Compound | melting point [°C]
O=C(O)C1CCc2ccccc2N1C(=O)CSSCC(=O)N1c2ccccc2CCC1C(=O)O (configuration not stated) | 172 to 174
CN(C(c1ccccc1)c1ccccc1)S(=O)(=O)CC#N | 104 to 107
O=C(O)c1cc2ccc(OCCNC[C@H](O)COc3ccccc3)cc2o1 | 214 to 217
NS(=O)(=O)c1ccccc1-c1cnoc1 | 165 to 167
c1cncc(-c2cc3ccccc3[nH]2)c1 | 176 to 177
Cc1c(C)c2c(c(C)c1N)CC(C)(CSCCC(=O)O)O2 (configuration not stated) | 139 to 140
O=c1c(Oc2ccc(-c3ccncc3)cc2)c(-n2ccnc2)cnn1-c1ccc(Cl)cc1 | 188
COc1ccc(N2CCN(N=O)CC2)cc1 | 94.5
CCCc1cc(OCc2ccc(-c3ccccc3-c3nnn(C(c4ccccc4)(c4ccccc4)c4ccccc4)n3)cc2)c(C(=O)OC)c(C)n1 | 61 to 64
Cc1cc(O)c(C(=O)CCC(=O)O)cc1Cl | 181 to 182
OCCn1ccc2cccnc21 | 52.7 to 53.3
CC(C)(C)OC(=O)NCc1cccc(Nc2n[nH]c3ncnc(Nc4cccc(Cl)c4)c23)c1 | 147 to 148
COC(=O)N(C)CCc1ccc2[nH]c(C)c(S(=O)(=O)c3ccccc3)c2c1 | 188 to 191
c1ccc2c(c1)nc(-c1ccc3c(c1)OCO3)n2CC1CCCCC1 | 100 to 102
Fc1ccc(C=Cc2ccc(C3COC(c4c(F)cccc4F)=N3)cc2)cc1 (configuration not stated) | 154 to 156
CCOC(=O)C1C(=O)Nc2ccccc2C1c1ccccc1 (configuration not stated) | 178 to 180
Cc1cc(-c2ccc(C(F)(F)F)cc2)cc(-c2ccnc(-c3cccc(S(N)(=O)=O)c3)c2)n1 | > 250
CC(O)c1ccc(C2CCCCC2)cc1 (configuration not stated) | 81.5 to 82.5
NC(=O)N(O)CCNC(=O)c1ccc(Cl)cc1 | 172 to 173
CC(=O)Nc1cc(C(F)(F)F)ccc1N1CCOCC1 | 85
COc1ccc(-c2cn(-c3ccc(C(F)(F)F)cc3F)nn2)cc1 | 152 to 154
COc1ccc(-c2c(C(=O)O)oc3cc(OCc4ccc(OCc5ccc6ccccc6n5)cc4)cc(O)c3c2=O)cc1 | 195 to 196
CC(C)Oc1cccc(-c2ccc3cnc(Nc4ccc(C5CCN(CC(N)=O)CC5)cc4)nn23)c1 | 233 to 235
O=C(O)c1cccc(-n2cnc3cc(-c4ccoc4)ccc32)c1 | 272 to 274

From a melting point compilation (Tetko et al.; mined from patent text by program, amines drawn as free bases though some values may be those of a salt)
